According to patent publication US9981972B2, “N-hydroxy bicyclic hydantoin carbamates as tools for identification of serine hydrolase targets” (ABIDE THERAPEUTICS, INC., priority 2014, dated 2018):
Like-named read-outs stand apart in the source and are kept apart here.

Assays:
Assay in all cases: Gel-based competitive ABPP in vitro, mouse brain membrane proteome
Assay type in all cases: biochemical
ABHD6 = target: T1, ABHD6 (Mus musculus, UniProt Q8R2Y0)
T1 construct: from tissue; host or cells: mouse brain, membrane fraction
T1 sequence (Q8R2Y0 1-336): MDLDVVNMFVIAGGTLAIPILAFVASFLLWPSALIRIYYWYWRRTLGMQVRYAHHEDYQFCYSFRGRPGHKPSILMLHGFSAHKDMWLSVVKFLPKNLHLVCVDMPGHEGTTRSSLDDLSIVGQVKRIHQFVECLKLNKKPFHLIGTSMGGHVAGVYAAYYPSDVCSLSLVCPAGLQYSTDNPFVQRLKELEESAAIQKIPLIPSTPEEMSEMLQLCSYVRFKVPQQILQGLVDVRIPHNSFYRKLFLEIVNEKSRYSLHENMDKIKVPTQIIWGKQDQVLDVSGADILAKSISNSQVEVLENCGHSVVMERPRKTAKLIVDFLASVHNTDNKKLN
Description: (§1) Assay Overview: The purpose of this assay was to determine whether test compounds can inhibit LYPLA1 and LYPLA2 in a complex proteomic lysate and to assess anti-target inhibition using a competitive activity-based proteomic profiling (ABPP) assay. In this assay, a complex proteome endogenously expressing LYPLA1/2 was incubated with test compound followed by reaction with a rhodamine-conjugated fluorophosphonate (FP-Rh) serine-hydrolase specific activity-based probe. The reaction products were separated by SDS-PAGE and visualized in-gel using a flatbed fluorescence scanner. The percentage activity remaining was determined by measuring the integrated optical density of the bands. […] Percent inhibition was calculated relative to a DMSO (no compound) control.
(§2) Protocol Summary: Mouse brain membrane proteome (50 μL reaction volume, 1 mg/mL in DPBS) was treated with 0.1-100 μM test compound (1 μL of a 50× stock in DMSO) for 30 minutes at 37° C. FP-Rh (1 μL of 50× stock in DMSO, Thermo #88318) was added to a final concentration of 2 μM. The reactions were incubated for 30 minutes at 25° C., quenched with 16 μL 4×SDS-PAGE loading buffer (reducing), separated by SDS-PAGE and visualized by in-gel fluorescent scanning. The percentage activity remaining was determined by measuring the integrated optical density of the bands relative to a DMSO-only (no compound) control. Assay Cutoff: Compounds with ≥50% inhibition of targets at 1 μM test compound concentration were considered active.
(§3) Assay Overview: The purpose of this assay was to determine IC50 values of powder samples of test compounds for enzyme of interest activity, and anti-targets in a complex proteomic lysate using a gel-based competitive ABPP assay. In this assay, a complex proteome was incubated with test compound followed by reaction with FP-Rh and SDS-PAGE analysis as described above.
(§4) Protocol Summary: Soluble HeLa cell proteome (50 μL reaction volume, 1 mg/mL in DPBS) or mouse brain membrane proteome (50 μL reaction volume, 1 mg/mL in DPBS) was treated with varying concentrations of test compound (1 μL of a 50× stock in DMSO) for 30 minutes at 37° C. FP-Rh (1 μL of 50× stock in DMSO) was added to a final concentration of 2 μM. The reaction was incubated for 30 minutes at 25° C., quenched with 16 μL 4×SDS-PAGE loading buffer (reducing), separated by SDS-PAGE and visualized by in-gel fluorescent scanning. The percentage activity remaining was determined by measuring the integrated optical density of the enzymes of interest, and anti-target bands relative to a DMSO-only (no compound) control. IC50 values were determined from dose-response curves from three replicates at each inhibitor concentration: 1, 10, 100, 1000, 10000 nM and 0.01, 0.1, 1, 10, 100, 1000, 10000, 50000, and 100000 nM.

FAAH = target: T2, FAAH (Mus musculus, UniProt O08914); conditions: for FAAH in vitro enzyme activity, % @ 10 μM: mouse brain (mem) proteome
T2 construct: from tissue; host or cells: mouse brain, membrane fraction
T2 sequence (O08914 1-579): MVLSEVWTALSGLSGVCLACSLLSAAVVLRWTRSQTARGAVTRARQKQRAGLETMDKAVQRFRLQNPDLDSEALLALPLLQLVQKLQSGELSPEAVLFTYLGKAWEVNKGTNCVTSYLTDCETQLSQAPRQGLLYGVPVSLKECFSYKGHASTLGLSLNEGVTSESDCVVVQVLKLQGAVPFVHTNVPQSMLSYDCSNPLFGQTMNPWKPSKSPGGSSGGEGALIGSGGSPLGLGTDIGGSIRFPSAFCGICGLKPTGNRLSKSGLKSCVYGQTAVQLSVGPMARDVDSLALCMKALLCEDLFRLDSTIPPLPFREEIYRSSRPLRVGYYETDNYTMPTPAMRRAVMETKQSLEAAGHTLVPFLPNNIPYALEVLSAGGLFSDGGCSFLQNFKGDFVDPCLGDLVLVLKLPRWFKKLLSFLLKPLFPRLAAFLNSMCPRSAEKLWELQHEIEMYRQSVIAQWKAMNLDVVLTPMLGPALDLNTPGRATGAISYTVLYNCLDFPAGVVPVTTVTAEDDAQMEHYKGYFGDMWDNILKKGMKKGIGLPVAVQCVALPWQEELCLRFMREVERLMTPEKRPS
Description: as §1, §2, §3, §4

PLA2G7 = target: T3, PLA2G7 (Mus musculus, UniProt Q60963); conditions: mouse brain (mem) proteome
T3 construct: from tissue; host or cells: mouse brain, membrane fraction
T3 sequence (Q60963 22-440): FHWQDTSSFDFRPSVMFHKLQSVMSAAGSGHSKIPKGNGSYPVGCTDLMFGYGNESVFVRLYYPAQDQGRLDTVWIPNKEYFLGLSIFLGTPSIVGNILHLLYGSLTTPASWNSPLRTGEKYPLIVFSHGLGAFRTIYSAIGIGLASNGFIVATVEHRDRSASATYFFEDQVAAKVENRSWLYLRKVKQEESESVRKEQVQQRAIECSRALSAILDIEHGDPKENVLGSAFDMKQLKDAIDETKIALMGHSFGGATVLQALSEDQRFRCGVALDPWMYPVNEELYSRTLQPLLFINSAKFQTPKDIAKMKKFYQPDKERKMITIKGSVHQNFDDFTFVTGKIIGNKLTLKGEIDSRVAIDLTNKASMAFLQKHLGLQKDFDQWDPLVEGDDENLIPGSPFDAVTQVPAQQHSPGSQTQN
Description: as §1, §2

[1] = mouse ABHD6, in vitro, read-out: mABHD6 in vitro potency (IC50)

Row | ABHD6 in vitro enzyme activity, % @ 1 μM (ABHD6; mouse brain (mem) proteome) | FAAH in vitro enzyme activity, % @ 10 μM (FAAH) | PLA2G7 in vitro enzyme activity, % @ 10 μM (PLA2G7) | PLA2G7 in vitro enzyme activity, % @ 1 μM (PLA2G7) | SMILES | other results
1 | 100% @ | 0% @ | – | 100% @ | C#CCOc1ccc(N2CCN(C(=O)ON3C(=O)[C@H]4CN(CC5CCN(Cc6ccccc6)CC5)CCN4C3=O)CC2)cc1 [Compound 47, (R)-7-((1-benzylpiperidin-4-yl)methyl)-1,3-dioxo-hexahydroimidazo[1,5-a]pyrazin-2(3H)-yl 4-(4-(prop-2-ynyloxy)phenyl)piperazine-1-carboxylate] | –
2 | 100% @ | 0% @ | – | 100% @ | C#CCOc1ccc(N2CCN(C(=O)ON3C(=O)[C@@H]4CN(CC5CCN(Cc6ccccc6)CC5)CCN4C3=O)CC2)cc1 [Compound 46, (S)-7-((1-benzylpiperidin-4-yl)methyl)-1,3-dioxo-hexahydroimidazo[1,5-a]pyrazin-2(3H)-yl 4-(4-(prop-2-ynyloxy)phenyl)piperazine-1-carboxylate] | –
3 | 100% @ | 0% @ | – | 100% @ | C#CCOc1ccc(N2CCN(C(=O)ON3C(=O)[C@H]4CN(Cc5ccc(Oc6ccccc6)cc5)CCN4C3=O)CC2)cc1 [Compound 45, (R)-1,3-dioxo-7-(4-phenoxybenzyl)-hexahydroimidazo[1,5-a]pyrazin-2(3H)-yl 4-(4-(prop-2-ynyloxy)phenyl)piperazine-1-carboxylate] | –

Second part, the compound before the results:

Row | SMILES | ABHD6 in vitro enzyme activity, % @ 1 μM (ABHD6; mouse brain (mem) proteome) | FAAH in vitro enzyme activity, % @ 10 μM (FAAH) | PLA2G7 in vitro enzyme activity, % @ 10 μM (PLA2G7) | PLA2G7 in vitro enzyme activity, % @ 1 μM (PLA2G7) | other results
4 | O=C(ON1C(=O)[C@@H]2CN(C(=O)N3CCOCC3)CCN2C1=O)N1CCC(CCc2ccc(Cl)cc2)CC1 [Compound 50, (S)-7-(morpholine-4-carbonyl)-1,3-dioxohexahydroimidazo[1,5-a]pyrazin-2(3H)-yl 4-(4-chloro-phenethyl)piperidine-1-carboxylate] | 100% @ | 0% @ | 100% @ | – | IC50 (ABHD6; [1]): 2.2 nM
5 | O=C(ON1C(=O)C2CN(Cc3ccc(Oc4ccccc4)cc3)CCN2C1=O)N1CCC(c2ccccc2)CC1 (stereo not drawn) [Compound 38, 1,3-dioxo-7-(4-phenoxybenzyl)hexahydroimidazo[1,5-a]pyrazin-2(3H)-yl 4-phenylpiperidine-1-carboxylate] | – | – | – | – | ABHD6 in vitro enzyme activity, % @ 20 μM (ABHD6; 20 μM, mouse brain (mem) proteome): 100% @
6 | COc1ccc(N2CCN(C(=O)ON3C(=O)C4CN(CC5CCN(Cc6ccccc6)CC5)CCN4C3=O)CC2)cc1 (stereo not drawn) [Compound 52, 7-((1-benzylpiperidin-4-yl)methyl)-1,3-dioxo-hexahydroimidazo[1,5-a]pyrazin-2(3H)-yl 4-(4-methoxyphenyl)piperazine-1-carboxylate] | 100% @ | 0% @ | – | 50% @ | –
7 | O=C(ON1C(=O)[C@@H]2CN(C(=O)N3CCOCC3)CCN2C1=O)N1CCN(CCc2ccc(Cl)cc2)CC1 [Compound 41, (S)-7-(morpholine-4-carbonyl)-1,3-dioxo-hexahydroimidazo[1,5-a]pyrazin-2(3H)-yl 4-(4-chlorophenethyl)piperazine-1-carboxylate] | 100% @ | 100% @ | 0% @ | – | –
8 | O=C(ON1C(=O)[C@@H]2CN(Cc3ccc(Br)cc3)CCN2C1=O)N1CCC(CCc2ccc(Cl)cc2)CC1 [Compound 40, (S)-7-(4-bromobenzyl)-1,3-dioxohexahydroimidazo[1,5-a]pyrazin-2(3H)-yl4-(4-chlorophenethyl)piperidine-1-carboxylate] | 100% @ | 50% @ | 100% @ | – | –
9 | COc1ccc(N2CCN(C(=O)ON3C(=O)[C@@H]4CN(CC5CCN(Cc6ccccc6)CC5)CCN4C3=O)CC2)cc1 [Compound 42, (S)-7-((1-benzylpiperidin-4-yl)methyl)-1,3-dioxo-hexahydroimidazo[1,5-a]pyrazin-2(3H)-yl 4-(4-methoxyphenyl)piperazine-1-carboxylate] | 100% @ | 0% @ | – | 100% @ | –
10 | O=C(ON1C(=O)C2CN(C(=O)N3CCOCC3)CCN2C1=O)N1CCC(CCc2ccc(Cl)cc2)CC1 (stereo not drawn) [Compound 1, 7-(morpholine-4-carbonyl)-1,3-dioxohexahydroimidazo[1,5-a]pyrazin-2(3H)-yl 4-(4-chloro-phenethyl)piperidine-1-carboxylate] | – | – | – | – | IC50 (ABHD6; anti-target, mouse brain membrane proteome, read-out: ABHD6 IC50): 3.15 nM; selectivity for LYPLA1/2 over FAAH (FAAH; LYPLA versus FAAH): ~13 fold; IC50 (FAAH; anti-target, mouse brain membrane proteome): 3150 nM
11 | O=C(ON1C(=O)[C@H]2CN(C(=O)N3CCOCC3)CCN2C1=O)N1CCC(CCc2ccc(Cl)cc2)CC1 [Compound 51, (R)-7-(morpholine-4-carbonyl)-1,3-dioxohexahydroimidazo[1,5-a]pyrazin-2(3H)-yl 4-(4-chloro-phenethyl)piperidine-1-carboxylate] | 100% @ | 0% @ | 100% @ | – | IC50 (ABHD6; [1]): 2.5 nM
12 | C#Cc1ccc(CCC2CCN(C(=O)ON3C(=O)[C@@H]4CN(C(=O)N5CCOCC5)CCN4C3=O)CC2)cc1 [Compound 48, (S)-7-(morpholine-4-carbonyl)-1,3-dioxo-hexahydroimidazo[1,5-a]pyrazin-2(3H)-yl 4-(4-ethynylphenethyl)piperidine-1-carboxylate] | 100% @ | 75% @ | 75% @ | – | –
13 | COc1ccc(N2CCN(C(=O)ON3C(=O)[C@H]4CN(CC5CCN(Cc6ccccc6)CC5)CCN4C3=O)CC2)cc1 [Compound 43, (R)-7-((1-benzylpiperidin-4-yl)methyl)-1,3-dioxo-hexahydroimidazo[1,5-a]pyrazin-2(3H)-yl 4-(4-methoxyphenyl)piperazine-1-carboxylate] | 100% @ | 0% @ | – | 100% @ | –
